Like-named read-outs stand apart in the source and are kept apart here.
Tests used:
Experiment in all cases: biochemical
Type in all cases: binding
[1] = target: 468 kinases (Homo sapiens, UniProt O14757); conditions: CHEK1; read-out: % Inhibition @ 100 nM
[2] = target: 468 kinases (Homo sapiens, UniProt O15111); conditions: IKK-alpha; read-out: % Inhibition @ 100 nM
[3] = target: 468 kinases (Homo sapiens, UniProt O60674); conditions: JAK2( JH1domain-catalytic); read-out: % Inhibition @ 100 nM
[4] = target: 468 kinases (Homo sapiens, UniProt O75716); conditions: STK16; read-out: % Inhibition @ 100 nM
[5] = target: 468 kinases (Homo sapiens, UniProt O94806); conditions: PRKD3; read-out: % Inhibition @ 100 nM
[6] = target: 468 kinases (Homo sapiens, UniProt O95819); conditions: MAP4K4; read-out: % Inhibition @ 100 nM
[7] = target: 468 kinases (Homo sapiens, UniProt P00519); conditions: read-out: % Inhibition @ 100 nM
[8] = target: 468 kinases (Homo sapiens, UniProt P07949, M918T); conditions: RET(M918T); read-out: % Inhibition @ 100 nM
[9] = target: 468 kinases (Homo sapiens, UniProt P08922); conditions: ROS1; read-out: % Inhibition @ 100 nM
[10] = target: 468 kinases (Homo sapiens, UniProt P10721, V559D/V654A); conditions: KIT(V559D,V654A); read-out: % Inhibition @ 100 nM
[11] = target: 468 kinases (Homo sapiens, UniProt P29323); conditions: EPHB2; read-out: % Inhibition @ 100 nM
[12] = target: 468 kinases (Homo sapiens, UniProt P31751); conditions: AKT2; read-out: % Inhibition @ 100 nM
[13] = target: 468 kinases (Homo sapiens, UniProt P35916); conditions: FLT4; read-out: % Inhibition @ 100 nM
[14] = target: 468 kinases (Homo sapiens, UniProt P42336, E542K); conditions: PIK3CA(E542K); read-out: % Inhibition @ 100 nM
[15] = target: 468 kinases (Homo sapiens, UniProt P43403); conditions: ZAP70; read-out: % Inhibition @ 100 nM
[16] = target: 468 kinases (Homo sapiens, UniProt P51955); conditions: NEK2; read-out: % Inhibition @ 100 nM
[17] = target: 468 kinases (Homo sapiens, UniProt P53778); conditions: p38-gamma; read-out: % Inhibition @ 100 nM
[18] = target: 468 kinases (Homo sapiens, UniProt P54762); conditions: EPHB1; read-out: % Inhibition @ 100 nM
[19] = target: 468 kinases (Homo sapiens, UniProt P78356); conditions: PIP5K2B; read-out: % Inhibition @ 100 nM
[20] = target: 468 kinases (Homo sapiens, UniProt Q02750); conditions: MEK1; read-out: % Inhibition @ 100 nM
[21] = target: 468 kinases (Homo sapiens, UniProt Q08881); conditions: ITK; read-out: % Inhibition @ 100 nM
[22] = target: 468 kinases (Homo sapiens, UniProt Q09013); conditions: DMPK; read-out: % Inhibition @ 100 nM
[23] = target: 468 kinases (Homo sapiens, UniProt Q12866); conditions: MERTK; read-out: % Inhibition @ 100 nM
[24] = target: 468 kinases (Homo sapiens, UniProt Q16288); conditions: TRKC; read-out: % Inhibition @ 100 nM
[25] = target: 468 kinases (Homo sapiens, UniProt Q5VT25); conditions: MRCKA; read-out: % Inhibition @ 100 nM
[26] = target: 468 kinases (Homo sapiens, UniProt Q6ZWH5); conditions: NEK10; read-out: % Inhibition @ 100 nM
[27] = target: 468 kinases (Homo sapiens, UniProt Q8IYT8); conditions: ULK2; read-out: % Inhibition @ 100 nM
[28] = target: 468 kinases (Homo sapiens, UniProt Q8TD08); conditions: ERK8; read-out: % Inhibition @ 100 nM
[29] = target: 468 kinases (Homo sapiens, UniProt Q9HBH9); conditions: MKNK2; read-out: % Inhibition @ 100 nM
[30] = target: 468 kinases (Homo sapiens, UniProt Q9HCP0); conditions: CSNK1G1; read-out: % Inhibition @ 100 nM
[31] = target: 468 kinases (Homo sapiens, UniProt Q9Y2H1); conditions: NDR2; read-out: % Inhibition @ 100 nM
[32] = tested on: 468 kinases; conditions: for Number of kinases inhibited >90%: at 100 nM, of 468 kinases

Structure (SMILES)	inhibition at 0.1 µM [1]	inhibition at 0.1 µM [2]	inhibition at 0.1 µM [3]	inhibition at 0.1 µM [4]	inhibition at 0.1 µM [5]	inhibition at 0.1 µM [6]	inhibition at 0.1 µM ([7]; ABL1 -nonphosphorylated)	inhibition at 0.1 µM [8]	inhibition at 0.1 µM [9]	inhibition at 0.1 µM [10]	inhibition at 0.1 µM [11]	inhibition at 0.1 µM [12]	inhibition at 0.1 µM [13]	inhibition at 0.1 µM [14]	inhibition at 0.1 µM [15]	inhibition at 0.1 µM [16]	inhibition at 0.1 µM [17]	inhibition at 0.1 µM [18]	inhibition at 0.1 µM [19]	inhibition at 0.1 µM [20]	further results
CCN(CC)CCNC(=O)c1c(C)[nH]c(/C=C2\C(=O)Nc3ccc(CCO)cc32)c1C [Compound No. 10, (Z)—N-(2-(Diethylamino)ethyl)-5-((5-(2-hydroxyethyl)-2-oxoindolin-3-ylidene)methyl)-2,4-dimethyl-1H-pyrrole-3-carboxamide]	42%	0%	72%	0%	0%	47%	54%	65%	15%	79%	3%	4%	27%	10%	6%	0%	14%	0%	91.7%	64%	inhibition at 0.1 µM ([7]; ABL1 -phosphorylated): 44%; inhibition at 0.1 µM [21]: 12%; inhibition at 0.1 µM [22]: 0%; inhibition at 0.1 µM [23]: 71%; inhibition at 0.1 µM [24]: 60%; inhibition at 0.1 µM [25]: 3%; inhibition at 0.1 µM [26]: 10%; inhibition at 0.1 µM [27]: 71%; inhibition at 0.1 µM [28]: 15%; inhibition at 0.1 µM [29]: 0%; inhibition at 0.1 µM [30]: 0%; inhibition at 0.1 µM [31]: 0%; % Inhibition @ 100 nM ([32]; EGFR(L747-E749del, A750P)): 0%; % Inhibition @ 100 nM ([32]; EGFR(L747-S752del, P753S)): 23%; % Inhibition @ 100 nM ([32]; EGFR(L747-T751del,Sins)): 37%; % Inhibition @ 100 nM ([32]; FLT3(ITD)): 99.3%; % Inhibition @ 100 nM ([32]; FLT3(ITD,D835V)): 99.15%; % Inhibition @ 100 nM ([32]; FLT3(ITD,F691L)): 100%; Number of kinases inhibited >90% [32]: 28 kinases
CCN(CC)CCNC(=O)c1c(C)[nH]c(/C=C2\C(=O)Nc3ccc(CCC(N)=O)cc32)c1C [Compound No. 16, (Z)-5-((5-(3-Amino-3-oxopropyl)-2-oxoindolin-3-ylidene)methyl)-N-(2-(diethylamino)ethyl)-2,4-dimethyl-1H-pyrrole-3-carboxamide]	66%	20%	76%	6%	53%	46%	36%	68%	0%	0%	10%	0%	56%	26%	60%	5%	15%	8%	86%	56%	inhibition at 0.1 µM [21]: 12%; inhibition at 0.1 µM [22]: 11%; inhibition at 0.1 µM [23]: 68%; inhibition at 0.1 µM [24]: 63%; inhibition at 0.1 µM [25]: 9%; inhibition at 0.1 µM [26]: 20%; inhibition at 0.1 µM [27]: 82%; inhibition at 0.1 µM [28]: 25%; inhibition at 0.1 µM [29]: 52%; inhibition at 0.1 µM [30]: 16%; inhibition at 0.1 µM [31]: 11%; % Inhibition @ 100 nM ([32]; EGFR(L747-E749del, A750P)): 27%; % Inhibition @ 100 nM ([32]; EGFR(L747-S752del, P753S)): 5%; % Inhibition @ 100 nM ([32]; EGFR(L747-T751del,Sins)): 11%; % Inhibition @ 100 nM ([32]; FLT3(ITD)): 97.2%; % Inhibition @ 100 nM ([32]; FLT3(ITD,D835V)): 100%; % Inhibition @ 100 nM ([32]; FLT3(ITD,F691L)): 100%; Number of kinases inhibited >90% [32]: 33 kinases
